# Results from US9951467B2, “Bacteriostatically treating method” (JNC CORPORATION, priority 2009, dated 2018).
# What was measured:
# E. coli = experiment: Antibacterial test on fiber samples immersed in polycationic polypeptide aqueous solution, bactericidal activity value (L); assay type: cell-based, Escherichia coli
# Text: (§1) Here, the bactericidal activity value (L) is defined by the following equation (for details, see the Approval Standard for Antibacterial and Deodorant Textile Products set forth by the Japan Textile Evaluation Technology Council (JTETC)). When this value (L) is ≥0, the textile product is considered to have an antibacterial effect, and it becomes eligible to be approved as a bacteriostatically treated textile product (with SEK Mark).
# (§2) L (bactericidal activity value)=(Ma−Mc)
# (§3) Ma: Average common logarithm value of the viable cell count or the ATP amount, which was measured for three samples immediately after the inoculation thereof onto a standard cloth.
# (§4) Mc: Average common logarithm value of the viable cell count or the ATP amount, which was measured for three samples after 18 hours of culturing on an antibacterially treated cloth.
# (§5) Threads, each of which was cut into 0.4 g in weight, were used as the fiber samples. Into a polycationic polypeptide aqueous solution of a prescribed concentration which was heated to a prescribed temperature (25, 50 or 75° C.), the samples were immersed for a prescribed period of time. The followings were used as the polycationic polypeptide.
# (§6) Then, the fiber samples were washed by a simple method which was modified from the washing method according to JIS L-0217 103 (“Antimicrobial Agent of SENKA Corporation”; Everything about antimicrobial agents, p. 595-598, 1997, Sen-i Co., Ltd.), and the thus washed samples were dried in the air. The washing method was carried out by the following steps.
# (§7) (1) Water having a temperature of 40° C. is filled into the washer water tank up to the highest line for the water level. To this water, “JAFET standard detergent (polyoxyethylene alkyl ether)” is added at a ratio of 40 mL of the detergent to 30 L of water to obtain washing solution.
# (§8) (2) The fiber samples are placed into the washing solution in such a manner that the bath ratio (the weight ratio of the fibers and the washing solution at the time of washing of the fibers after the immersion) becomes 1:30, and the washing machine is operated for 25 minutes.
# (§9) (3) The fiber samples are dehydrated by a dehydrator. The dehydration is carried out for 7 to 8 minutes.
# (§10) (4) The washing solution is replaced with fresh water at room temperature, and rinsing and washing are performed in the filled water for 4 minutes at the same bath ratio.
# (§11) (5) The fiber samples are dehydrated by a dehydrator. The dehydration is carried out for 7 to 8 minutes.
# (§12) (6) Rinsing and washing are performed with running water for 2 minutes.
# (§13) (7) Considering the above (1) to (6) as 5 washings, these steps are repeated twice to have the fiber samples be “washed 10 times”.
# (§14) (8) The fiber samples are dehydrated by a dehydrator.
# (§15) A bacterial suspension which was cultured in normal broth at 30° C. for 18 hours was mixed and diluted to prepare a diluted bacterial suspension having a concentration of 10^6 cells/mL. Placed into a vial was 0.4 g of fiber sample which was not washed or washed 10 times. Thereto inoculated was 400 μL of the diluted bacterial suspension, which was then allowed to soak into the sample, and the sample was incubated at 37° C. After 18 hours, 20 mL of physiological saline was added to the vial and the resultant was stirred using a mixer (5 seconds×5 times) to suspend the bacterial cells. The thus obtained suspension was diluted as appropriate, and the number of bacterium was counted to calculate the bactericidal activity value (L) based on the aforementioned equation. Here, the tested bacteria were E. coli and S. aureus.
# S. aureus = experiment: as above; assay type: cell-based, Staphylococcus aureus
# Text: as §1, §2, §3, §4, §5, §6, §7, §8, §9, §10, §11, §12, §13, §14, §15
# [1] = Acryl 100% thread, immersion 25° C., 2 hours
# [2] = Acryl 100% thread, immersion 25° C., 3 hours
# [3] = Acryl 100% thread, immersion 25° C., 24 hours
# [4] = Cotton 100% thread, immersion 50° C., 2 hours
# [5] = Cotton 100% thread, immersion 50° C., 3 hours
# [6] = Cotton 100% thread, immersion 50° C., 24 hours
# [7] = Cotton 100% thread, immersion 75° C., 2 hours
# [8] = Cotton 100% thread, immersion 75° C., 3 hours
# [9] = Cotton 100% thread, immersion 75° C., 24 hours
# [10] = Hemp 100% thread, immersion 25° C., 2 hours
# [11] = Hemp 100% thread, immersion 25° C., 3 hours
# [12] = Hemp 100% thread, immersion 25° C., 24 hours
# [13] = Nylon 100% thread, immersion 25° C., 2 hours
# [14] = Nylon 100% thread, immersion 25° C., 3 hours
# [15] = Nylon 100% thread, immersion 25° C., 24 hours
# [16] = Polyester 100% thread, immersion 25° C., 2 hours
# [17] = Polyester 100% thread, immersion 25° C., 3 hours
# [18] = Polyester 100% thread, immersion 25° C., 24 hours
# [19] = Rayon 100% thread, immersion 25° C., 2 hours
# [20] = Rayon 100% thread, immersion 25° C., 3 hours
# [21] = Rayon 100% thread, immersion 25° C., 24 hours
# [22] = Wool 100% thread, immersion 50° C., 2 hours
# [23] = Wool 100% thread, immersion 50° C., 3 hours
# [24] = Wool 100% thread, immersion 50° C., 24 hours
# [25] = Wool 100% thread, immersion 75° C., 2 hours
# [26] = Wool 100% thread, immersion 75° C., 3 hours
# [27] = Wool 100% thread, immersion 75° C., 24 hours
# [28] = cotton thread and wool, immersion 50° C., 2 hours or more (text summary of Table 1)
# [29] = threads of various materials, immersion 25° C., 2 hours or more (text summary of Table 2)
substance,measurement,setting,value
ϵ-polylysine [ε-polylysine],"ε-polylysine concentration at which L ≥ 0 was attained, E. coli",E. coli; [1],500 ppm
same,"ε-polylysine concentration at which L ≥ 0 was attained, E. coli",E. coli; [2],500 ppm
same,"ε-polylysine concentration at which L ≥ 0 was attained, E. coli",E. coli; [3],250 ppm
same,"ε-polylysine concentration at which L ≥ 0 was attained, E. coli",E. coli; [4],"2,500 ppm"
same,"ε-polylysine concentration at which L ≥ 0 was attained, E. coli",E. coli; [5],"2,500 ppm"
same,"ε-polylysine concentration at which L ≥ 0 was attained, E. coli",E. coli; [6],"2,500 ppm"
same,"ε-polylysine concentration at which L ≥ 0 was attained, E. coli",E. coli; [7],"2,500 ppm"
same,"ε-polylysine concentration at which L ≥ 0 was attained, E. coli",E. coli; [8],"2,500 ppm"
same,"ε-polylysine concentration at which L ≥ 0 was attained, E. coli",E. coli; [9],"2,500 ppm"
same,"ε-polylysine concentration at which L ≥ 0 was attained, E. coli",E. coli; [10],500 ppm
same,"ε-polylysine concentration at which L ≥ 0 was attained, E. coli",E. coli; [11],500 ppm
same,"ε-polylysine concentration at which L ≥ 0 was attained, E. coli",E. coli; [12],800 ppm
same,"ε-polylysine concentration at which L ≥ 0 was attained, E. coli",E. coli; [13],500 ppm
same,"ε-polylysine concentration at which L ≥ 0 was attained, E. coli",E. coli; [14],500 ppm
same,"ε-polylysine concentration at which L ≥ 0 was attained, E. coli",E. coli; [15],250 ppm
same,"ε-polylysine concentration at which L ≥ 0 was attained, E. coli",E. coli; [16],500 ppm
same,"ε-polylysine concentration at which L ≥ 0 was attained, E. coli",E. coli; [17],500 ppm
same,"ε-polylysine concentration at which L ≥ 0 was attained, E. coli",E. coli; [18],800 ppm
same,"ε-polylysine concentration at which L ≥ 0 was attained, E. coli",E. coli; [19],500 ppm
same,"ε-polylysine concentration at which L ≥ 0 was attained, E. coli",E. coli; [20],500 ppm
same,"ε-polylysine concentration at which L ≥ 0 was attained, E. coli",E. coli; [21],250 ppm
same,"ε-polylysine concentration at which L ≥ 0 was attained, E. coli",E. coli; [22],"2,500 ppm"
same,"ε-polylysine concentration at which L ≥ 0 was attained, E. coli",E. coli; [23],"2,500 ppm"
same,"ε-polylysine concentration at which L ≥ 0 was attained, E. coli",E. coli; [24],"2,500 ppm"
same,"ε-polylysine concentration at which L ≥ 0 was attained, E. coli",E. coli; [25],"2,500 ppm"
same,"ε-polylysine concentration at which L ≥ 0 was attained, E. coli",E. coli; [26],"2,500 ppm"
same,"ε-polylysine concentration at which L ≥ 0 was attained, E. coli",E. coli; [27],"2,500 ppm"
same,concentration of ϵ-polylysine aqueous solution at which bacteriostatic effect against E. coli was attained,E. coli; [28],"2,500 ppm"
same,concentration of ϵ-polylysine aqueous solution at which bacteriostatic effect against E. coli was attained,E. coli; [29],500 ppm
same,"ε-polylysine concentration at which L ≥ 0 was attained, S. aureus",S. aureus; [1],500 ppm
same,"ε-polylysine concentration at which L ≥ 0 was attained, S. aureus",S. aureus; [2],500 ppm
same,"ε-polylysine concentration at which L ≥ 0 was attained, S. aureus",S. aureus; [3],250 ppm
same,"ε-polylysine concentration at which L ≥ 0 was attained, S. aureus",S. aureus; [4],500 ppm
same,"ε-polylysine concentration at which L ≥ 0 was attained, S. aureus",S. aureus; [5],500 ppm
same,"ε-polylysine concentration at which L ≥ 0 was attained, S. aureus",S. aureus; [6],500 ppm
same,"ε-polylysine concentration at which L ≥ 0 was attained, S. aureus",S. aureus; [7],500 ppm
same,"ε-polylysine concentration at which L ≥ 0 was attained, S. aureus",S. aureus; [8],500 ppm
same,"ε-polylysine concentration at which L ≥ 0 was attained, S. aureus",S. aureus; [9],500 ppm
same,"ε-polylysine concentration at which L ≥ 0 was attained, S. aureus",S. aureus; [10],500 ppm
same,"ε-polylysine concentration at which L ≥ 0 was attained, S. aureus",S. aureus; [11],500 ppm
same,"ε-polylysine concentration at which L ≥ 0 was attained, S. aureus",S. aureus; [12],250 ppm
same,"ε-polylysine concentration at which L ≥ 0 was attained, S. aureus",S. aureus; [13],500 ppm
same,"ε-polylysine concentration at which L ≥ 0 was attained, S. aureus",S. aureus; [14],500 ppm
same,"ε-polylysine concentration at which L ≥ 0 was attained, S. aureus",S. aureus; [15],250 ppm
same,"ε-polylysine concentration at which L ≥ 0 was attained, S. aureus",S. aureus; [16],500 ppm
same,"ε-polylysine concentration at which L ≥ 0 was attained, S. aureus",S. aureus; [17],500 ppm
same,"ε-polylysine concentration at which L ≥ 0 was attained, S. aureus",S. aureus; [18],250 ppm
same,"ε-polylysine concentration at which L ≥ 0 was attained, S. aureus",S. aureus; [19],500 ppm
same,"ε-polylysine concentration at which L ≥ 0 was attained, S. aureus",S. aureus; [20],500 ppm
same,"ε-polylysine concentration at which L ≥ 0 was attained, S. aureus",S. aureus; [21],250 ppm
same,"ε-polylysine concentration at which L ≥ 0 was attained, S. aureus",S. aureus; [22],500 ppm
same,"ε-polylysine concentration at which L ≥ 0 was attained, S. aureus",S. aureus; [23],500 ppm
same,"ε-polylysine concentration at which L ≥ 0 was attained, S. aureus",S. aureus; [24],500 ppm
same,"ε-polylysine concentration at which L ≥ 0 was attained, S. aureus",S. aureus; [25],500 ppm
same,"ε-polylysine concentration at which L ≥ 0 was attained, S. aureus",S. aureus; [26],500 ppm
same,"ε-polylysine concentration at which L ≥ 0 was attained, S. aureus",S. aureus; [27],500 ppm
same,concentration of ϵ-polylysine aqueous solution at which bacteriostatic effect against S. aureus was attained,S. aureus; [28],500 ppm
same,concentration of ϵ-polylysine aqueous solution at which bacteriostatic effect against S. aureus was attained,S. aureus; [29],500 ppm
